Source: patent publication EP4722213A1, “NITROGEN-CONTAINING FUNCTIONAL GROUP-SUBSTITUTED PYRIDAZINOPYRIDONE DERIVATIVE AND USE THEREOF” (Sichuan Huiyu Pharmaceutical Co., Ltd., priority 2023, dated 2024)
Structures can show the parent of a compound that is named as a salt.

How the values were obtained:
[1] = tested on: NCI-H358 non-small cell lung cancer cells; assay: Inhibition of NCI-H358 cell proliferation (CellTiter-Glo 3D, 7 days); assay type: cell-based; details: Homo sapiens, NCI-H358, 168 h, 3D microspheres, read-out: Inhibitory activity against NCI-H358 cell proliferation (IC50)
Description: The number of viable cells were detected by CellTiter-Glo 3D® reagent, thereby evaluating the inhibitory effect of compounds on cell proliferation. NCI-H358 non-small cell lung cancer cells (Nanjing cobioer) in the exponential growth phase were digested with trypsin-EDTA, and seeded into 96-well ultra-low attachment microplates at 100 µL per well with a density of 2000 cells/well. The cells were cultured overnight at 37°C with 5% CO2 to form microspheres. The test compounds were serially diluted 5-fold with DMSO to obtain 8 concentration gradient dilutions, then diluted with RPMI-1640 (10% FBS) cell culture medium respectively to obtain compound working solutions (2×). 100 µL per well was added to the cell supernatant, and the culture was continued for 7 days under the conditions of 37°C and 5% CO2. The well plate was removed, and 100 µL of CellTiter-Glo 3D® reagent was added. After lysis at room temperature for 10-30 minutes, 70 µL of the lysate was aspirated and transferred to a white opaque 384-well plate.
The inhibition rate was calculated by the following formula: [formula] Note: The negative control refers to the group without inhibitor, and the blank refers to the group without cells.
The inhibitory activities of some Example compounds and comparative compounds against NCI-H358 cell proliferation are shown in Table 2. Table 2. Inhibitory activity of some Example compounds against NCI-H358 cell proliferation

[2] = Rat liver microsomal metabolic stability; assay type: in vitro ADME; details: rat liver microsomes; for half-life at 1 µM: NADPH, 37°C; for CLint scaled at 1 µM: calculated from T1/2, fu defaulted to 1, read-out: CL(liver)
Text: Metabolic stability affects the clearance rate, half-life, and oral bioavailability of compounds in the body, and is one of the most important ADME drug-like properties of compounds. Hepatocyte microsomal stability assay is a commonly used method for studying metabolic stability. In the present disclosure, rat liver microsomes are used to determine and investigate the metabolic stability of compounds.
Preparation of compound stock solution: an appropriate amount of the test compound and testosterone was taken, and a 1 mM stock solution was prepared with DMSO, which was stored in a refrigerator at 4°C.
Preparation of compound working solution: The 1 mM compound stock solution was taken respectively, and then diluted to 100 µM with acetonitrile-water (v:v = 1:1) to obtain the working solution.
Preparation of NADPH working solution: an appropriate amount of NADPH was weighed and dissolved in 16 mM MgCl2 to prepare a NADPH working solution with a concentration of 4.0 mM.
Preparation of rat liver microsome working solution: an appropriate amount of rat liver microsomes was taken and diluted with PBS to obtain a liver microsome working solution with a concentration of 1 mg/mL.
In the incubation system, 48 µL of PBS, 100 µL of rat liver microsome working solution, and 2 µL of the test compound working solution were sequentially added and mixed well. After pre-incubation at 37°C for 5 min, 50 µL of NADPH was added to initiate the reaction. After incubation for the corresponding time points, an appropriate amount of ice-cold acetonitrile containing an internal standard was added to terminate the reaction. The mixture was vortexed to mix well, centrifuged, and the supernatant was collected. The supernatant was injected into LC-MS/MS for detection of the residual metabolic amount of the compound.
Softwares of Excel, etc. were used for data processing according to the following formula. Ct = C0 •e^(−ke •t) [formula] when Ct = (1)/(2)C0 [formula] , T1/2 = (Ln2)/(ke) = (0.693)/(ke) [formula] CLint(mic) = (0.693)/(In vitro T1/2)•(1)/(mg/mL microsomal protein in reaction system) [formula] CLint(liver) = CLint(mic) •(mg microsomes)/(g liver)•(g liver)/(kg body weight) [formula] CL(liver) = (CLint(liver)×fu×Qh)/(CLint(liver)×fu+Qh) [formula] fu (unbound fraction in blood) was defaulted to be 1.

[3] = biological target: T1, SOS1 (Homo sapiens, UniProt Q07889); assay: biochemical
T1 sequence (Q07889 1-1333): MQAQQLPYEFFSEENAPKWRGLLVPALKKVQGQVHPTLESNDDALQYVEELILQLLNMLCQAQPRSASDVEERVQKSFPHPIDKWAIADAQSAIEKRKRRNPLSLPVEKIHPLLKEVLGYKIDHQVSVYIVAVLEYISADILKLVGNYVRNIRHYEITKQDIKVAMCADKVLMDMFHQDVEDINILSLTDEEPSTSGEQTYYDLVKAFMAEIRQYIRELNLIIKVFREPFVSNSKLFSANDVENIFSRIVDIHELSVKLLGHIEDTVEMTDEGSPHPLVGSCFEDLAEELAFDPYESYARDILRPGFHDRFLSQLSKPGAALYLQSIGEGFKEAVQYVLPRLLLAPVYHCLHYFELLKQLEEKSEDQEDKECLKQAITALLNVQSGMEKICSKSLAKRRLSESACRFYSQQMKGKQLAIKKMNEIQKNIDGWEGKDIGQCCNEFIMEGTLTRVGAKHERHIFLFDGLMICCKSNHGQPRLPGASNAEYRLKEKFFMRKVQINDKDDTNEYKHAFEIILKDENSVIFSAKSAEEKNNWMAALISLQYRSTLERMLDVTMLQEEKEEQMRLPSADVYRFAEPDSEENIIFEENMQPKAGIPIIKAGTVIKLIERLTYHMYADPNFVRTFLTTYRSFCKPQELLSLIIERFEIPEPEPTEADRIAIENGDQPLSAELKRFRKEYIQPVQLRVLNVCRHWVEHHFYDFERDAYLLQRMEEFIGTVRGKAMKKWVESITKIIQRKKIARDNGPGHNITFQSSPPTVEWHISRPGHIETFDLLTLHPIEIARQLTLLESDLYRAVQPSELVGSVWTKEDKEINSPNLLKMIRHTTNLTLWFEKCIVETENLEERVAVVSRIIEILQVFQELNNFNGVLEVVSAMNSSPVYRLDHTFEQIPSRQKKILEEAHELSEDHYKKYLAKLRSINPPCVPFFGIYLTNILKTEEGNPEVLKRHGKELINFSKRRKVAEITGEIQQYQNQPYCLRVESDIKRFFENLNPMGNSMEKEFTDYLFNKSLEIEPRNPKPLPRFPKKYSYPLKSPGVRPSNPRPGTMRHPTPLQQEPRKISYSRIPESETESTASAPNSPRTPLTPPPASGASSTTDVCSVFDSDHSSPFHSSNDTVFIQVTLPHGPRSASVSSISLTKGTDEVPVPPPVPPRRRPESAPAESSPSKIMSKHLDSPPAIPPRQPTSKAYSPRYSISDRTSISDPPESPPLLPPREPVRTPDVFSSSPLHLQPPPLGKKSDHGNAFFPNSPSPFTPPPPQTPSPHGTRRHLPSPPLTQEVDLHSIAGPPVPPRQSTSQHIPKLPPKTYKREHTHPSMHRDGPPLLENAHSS

| SMILES | IC50 [1] [nM] | half-life at 1 µM [2] [h] | CLint scaled at 1 µM [2] [mL/min/kg] | IC50 [3] [nM] |
| --- | --- | --- | --- | --- |
| CC(C)N1CCN(c2nnc(N[C@H](C)c3cccc(C(F)F)c3F)c3cn(C4CCC4)c(=O)cc23)CC1 [Example 113, (R)-6-cyclobutyl-4-((1-(3-(difluoromethyl)-2-fluorophenyl)ethyl)amino)-1-(4-isopropylpiperazin-1-yl)pyrido[3,4-d]pyridazin-7(6H)-one] | 24.2 | 2.25 | 13.9 | 4.5 |
| C[C@@H](Nc1nnc(N2CCN(CC3CC3)CC2)c2cc(=O)n(C3(C)CC3)cc12)c1cccc(C(F)F)c1F [Example 219, (R)-1-(4-(cyclopropylmethyl)piperazin-1-yl)-4-((1-(3-(difluoromethyl)-2-fluorophenyl)ethyl)amino)-6-(1-methylcyclopropyl) pyrido[3,4-d]pyridazin-7(6H)-one] | 25 | 2.8 | 11.7 | 4.7 |
| C[C@@H](Nc1nnc(N2CCN(C)CC2)c2cc(=O)n(C3CC(F)(F)C3)cc12)c1cccc(C(F)F)c1F [Example 90, (R)-6-(3,3-difluorocyclobutyl)-4-((1-(3-(difluoromethyl)-2-fluorophenyl)ethyl)amino)-1-(4-methylpiperazin-1-yl)pyrido[3,4-d]pyridazin-7(6H)-one] | 49.8 | 2.32 | 13.5 | 4.2 |
| C[C@@H](Nc1nnc(N2CCN(C(C)(C)C)CC2)c2cc(=O)n(C3CC(F)(F)C3)cc12)c1cccc(C(F)F)c1F [Example 108, (R)-6-(3,3-difluorocyclobutyl)-4-((1-(3-(difluoromethyl)-2-fluorophenyl)ethyl)amino)-1-(4-(tert-butyl)piperazin-1-yl)pyrido[3,4-d]pyridazin-7(6H)-one] | 27 | 2.23 | 13.9 | 5.5 |
| C[C@@H](Nc1nnc(N2CCN(C3CCCC3)CC2)c2cc(=O)n(C3(C)CC3)cc12)c1cccc(C(F)F)c1F [Example 221, (R)-1-(4-cyclopentylpiperazin-1-yl)-4-((1-(3-(difluoromethyl)-2-fluorophenyl)ethyl)amino)-6-(1-methylcyclopropyl) pyrido[3,4-d]pyridazin-7(6H)-one] | 53.6 | 1.12 | 22.2 | 5 |
| C[C@@H]1CN(c2nnc(N[C@H](C)c3cccc(C(F)(F)F)c3)c3cn(C4(C)CC4)c(=O)cc23)CCN1C [Example 176, 1-((R)-3,4-dimethylpiperazin-1-yl)-6-(1-methylcyclopropyl)-4-(((R)-1-(3-(trifluoromethyl)phenyl)ethyl)amino)pyr ido[3,4-d]pyridazin-7(6H)-one formate] | 32.3 |  |  | 6 |
| C[C@@H](Nc1nnc(N2CCN(C)CC2)c2cc(=O)n(C3CC3)cc12)c1cccc(S(F)(F)(F)(F)F)c1 [Example 89, (R)-6-cyclopropyl-1-(4-methylpiperazin-1-yl)-4-((1-(3-(pentafluoro-λ^6-sulfaneyl)phenyl)ethyl)amino)pyrido[3,4-d]pyridazin-7(6H)-one] | 58.6 |  |  | 4.1 |
| CCN1CCN(c2nnc(N[C@H](C)c3cccc(C(F)(F)F)c3C)c3cn(C4(C)CC4)c(=O)cc23)CC1 [Example 104, (R)-1-(4-ethylpiperazin-1-yl)-4-((1-(2-methyl-3-(trifluoromethyl)phenyl)ethyl)amino)-6-(1-methylcyclopropyl) pyrido[3,4-d]pyridazin-7(6H)-one] | 29.7 | 2.6 | 12.4 | 7.5 |
| C[C@@H](Nc1nnc(N2CCN(CCO)CC2)c2cc(=O)n(C3(C)CC3)cc12)c1cccc(C(F)F)c1F [Example 194, (R)-4-((1-(3-(difluoromethyl)-2-fluorophenyl)ethyl)amino)-1-(4-(2-hydroxyethyl)piperazin-1-yl)-6-(1-methylcyclopropyl) pyrido[3,4-d]pyridazin-7(6H)-one] | 44.9 |  |  | 3.9 |
| Cc1c([C@@H](C)Nc2nnc(N3CCN(C(C)C)CC3)c3cc(=O)n(C4(C)CC4)cc23)cccc1C(F)(F)F [Example 91, (R)-1-(4-isopropylpiperazin-1-yl)-4-((1-(2-methyl-3-(trifluoromethyl)phenyl)ethyl)amino)-6-(1-methylcyclopropyl) pyrido[3,4-d]pyridazin-7(6H)-one] | 38.5 | 2.52 | 12.7 | 5.7 |
| CCNc1nnc(N[C@H](C)c2cccc(C(F)(F)F)c2C)c2cn(C3(C)CC3)c(=O)cc12 [Example 97, (R)-1-(ethylamino)-4-((1-(2-methyl-3-(trifluoromethyl)phenyl)ethyl)amino)-6-(1-methylcyclopropyl) pyrido[3,4-d]pyridazin-7(6H)-one] | 36.8 | 1.75 | 16.7 | 5.1 |
| CC1CN(c2nnc(N[C@H](C)c3cccc(C(F)F)c3F)c3cn(C4(C)CC4)c(=O)cc23)C1 [Example 130, (R)-4-((1-(3-(difluoromethyl)-2-fluorophenyl)ethyl)amino)-1-(3-methylazetidin-1-yl)-6-(1-methylcyclopropyl) pyrido[3,4-d]pyridazin-7(6H)-one] | 47.8 |  |  | 3.4 |
